Reference: patent US9023826B2 (L'Oreal S.A., priority 2012, dated 2015)

Test: Solubility in water, with or without hydrotropes, at room temperature
Assay type: physicochemical

For Nc1ncnc2c1ncn2[C@@H]1O[C@H](CO)[C@@H](O)[C@H]1O [Adenosine], the “stability of adenosine/hydrotropes solution in water on further dilution or concentration” value was “stable” and the “concentration of stable clear solution obtained” value (5% nicotinamide and 5% caffeine in water) was 3 % (w/w).
